In publication PMC8559926, “Design, synthesis and biological evaluation of N-oxide derivatives with potent in vivo antileishmanial activity” (PLoS ONE, 2021):
Several values for one entry are separate records, joined by “and”; a condition that tells them apart may be missing. Equal values may be shown once. Read-outs that look alike come from different tables or passages of the source.

Experiments:
[1] = test system: L. infantum intracellular amastigotes; experiment: Anti-amastigote activity in infected murine peritoneal macrophages; type: cell-based; conditions: Leishmania infantum, Peritoneal macrophage, read-out: EC50 - Effective Concentration that kills 50% of L. infantum amastigote forms
Description: (§1) The antileishmanial activity against L. infantum intracellular amastigotes, according to the following methodology. […] Were used infected macrophages as negative control and amphotericin B as the positive control.
(§2) After incubation, cells were fixed with methanol and Giemsa stained. The effective concentration to 50% amastigotes death (EC) was obtained by counting 100 macrophages in duplicate, in two independent experiments. The values were obtained by non-linear regression on Bioestat® software, and results were expressed in mean ± standard deviation.

[2] = as above; type: cell-based, L. infantum; conditions: Swiss, mouse; CC50 macrophages / EC50 L. infantum amastigotes; read-out: SI - Selective Index (CC50/EC50)
Description: as §1, §2

[3] = Quantification of nitrite by the Griess reaction (NO release); conditions: compounds at 10^-4 M, 5 mM of L-Cys (1:50), 1 h, 37°C
Description: The levels of nitrite resulting from the oxidation of NO in the aqueous medium were quantified through the Griess reaction after incubation with an excess of L-cysteine (1:50) according to previously published methods. The experiments were performed in triplicate and repeated three times on different days. […] The results were expressed as a percentage of nitrite (% NO2^−; mol/mol). Statistical analysis was carried out using ANOVA followed by Tukey’s Multiple Comparison Test at a significance level of p < 0.05.
The ability of all synthesized compounds (4a-x) and (14a-g) to release NO was evaluated by indirect determination of NO2^− production. The compounds at 10^−4 M were incubated for 1 h at 37°C in the presence of L-cysteine (1:50) and the produced NO2^− was determined through Griess reaction (Table 1).

[4] = target: T1, recombinant Leishmania cysteine protease LmCPB2.8ΔCTE (CPB) (Leishmania mexicana, UniProt P36400); experiment: Enzymatic inhibition of recombinant CPB (Z-FR-AMC substrate); type: biochemical
T1 construct: The ORF that codes for the Leishmania mexicana CPB, lacking the C terminal extension (CPB2.8ΔCTE); made in house; host or cells: Pichia pastoris X-33
T1 sequence (P36400 126-341, stated change not applied): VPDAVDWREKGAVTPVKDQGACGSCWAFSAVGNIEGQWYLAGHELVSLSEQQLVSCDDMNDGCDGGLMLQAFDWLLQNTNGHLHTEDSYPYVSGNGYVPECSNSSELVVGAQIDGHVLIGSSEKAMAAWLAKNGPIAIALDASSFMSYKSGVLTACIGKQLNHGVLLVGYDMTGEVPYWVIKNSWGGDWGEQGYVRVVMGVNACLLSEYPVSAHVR
Description: The concentration of the active recombinant CPB expressed in Pichia pastoris supernatant was determined by active site titration with N-(trans-Epoxysuccinyl)-L-leucine 4-guanidinobutylamide E-64 (CalBiochem) that was found 1 μM. The active enzyme represented about 80% of the total recombinant enzyme.
Compounds were dissolved in DMSO to a final concentration of 20 μM. The assays were performed in dark 96 well-plates, containing 200 μL of 100 mM sodium acetate buffer (pH 5.5), 200 mM NaCl, 0.01% Triton-X100, 2 nM enzyme, various concentrations of inhibitor, and 5 μM of the substrate Z-FR-AMC (Calbiochem). The final concentration of DMSO was 1% (v/v). The enzyme was pre-incubated at 30°C for 2 minutes before the inhibitor was added, waited 2 minutes and after this incubation, the reaction was started by the addition of the substrate, Z-FR-AMC. The fluorescence was monitored at 380 nm excitation and 460 nm emission filters for 2 minutes at 30°C in an Infinite 200 PRO microplate reader (Tecan, Männedorf, Switzerland). The residual activity was measured by the ratio between enzyme + substrate and enzyme + inhibitor + substrate. […] Results were expressed in mean ± standard deviation of two independent replicates using Bioestat Software.

Compound	EC50 ([1]; 24 h treatment, intracellular amastigotes) [µM]	selectivity ratio at 24 h [2]	% NO2- (mol/mol) [3]	IC50 [4] [µM]	EC50 ([1]; 24 h) [µM]	melting point [°C]	IC50 ([4]; read-out: IC50 - Inhibition of CPB, 2 nM enzyme, 5 μM Z-FR-AMC, pH 5.5, 30°C) [µM]
C[C@@H]1[C@H](O)[C@@H](C)/C=C/C=C/C=C/C=C/C=C/C=C/C=C/[C@H](O[C@@H]2O[C@H](C)[C@@H](O)[C@H](N)[C@@H]2O)C[C@@H]2O[C@](O)(C[C@@H](O)C[C@@H](O)[C@H](O)CC[C@@H](O)C[C@@H](O)CC(=O)O[C@H]1C)C[C@H](O)[C@H]2C(=O)O [Amphotericin B, amphotericin B, reference compound]	1 ± 0.1	12	0%				
O=C(N/N=C/c1ccc(Oc2no[n+]([O-])c2-c2ccccc2)cc1)c1ccccc1 [Compound 4a, (E)-4-(4-((2-benzoylhydrazono)methyl)phenoxy)-3-phenyl-1,2,5-oxadiazole 2-oxide]		> 357	9.0 ± 0.7 %	1.5 ± 0.1	1.4 ± 0.1		
O=C(N/N=C/c1ccc(Oc2no[n+]([O-])c2-c2ccccc2)cc1)c1ccc(O)cc1 [Compound 4b, (E)-4-(4-((2-(4-hydroxybenzoyl)hydrazono)methyl)phenoxy)-3-phenyl-1,2,5-oxadiazole 2-oxide]		54	8.8 ± 0.6 %	3.2 ± 0.3	3.1 ± 0.2		
Nc1ccc(C(=O)N/N=C/c2ccc(Oc3no[n+]([O-])c3-c3ccccc3)cc2)cc1 [Compound 4c, (E)-4-(4-((2-(4-aminobenzoyl)hydrazono)methyl)phenoxy)-3-phenyl-1,2,5-oxadiazole 2-oxide]		17	9.3 ± 0.8 %	2 ± 0.1	7.2 ± 0.2		
O=C(N/N=C/c1ccc(Oc2no[n+]([O-])c2-c2ccccc2)cc1)c1ccc([N+](=O)[O-])cc1 [Compound 4d, (E)-4-(4-((2-(4-nitrobenzoyl)hydrazono)methyl)phenoxy)-3-phenyl-1,2,5-oxadiazole 2-oxide]		> 128	8.6 ± 0.8 %	1.8 ± 0.1	3.9 ± 0.4		
CC(C)(C)c1ccc(C(=O)N/N=C/c2ccc(Oc3no[n+]([O-])c3-c3ccccc3)cc2)cc1 [Compound 4e, (E)-4-(4-((2-(4-(tert-butyl)benzoyl)hydrazono)methyl)phenoxy)-3-phenyl-1,2,5-oxadiazole 2-oxide]		> 833	8.8 ± 0.7 %	0.8 ± 0.1	0.6 ± 0.1		
NC(=S)N/N=C/c1ccc(Oc2no[n+]([O-])c2-c2ccccc2)cc1 [Compound 4g, (E)-4-(4-((2-carbamothioylhydrazono)methyl)phenoxy)-3-phenyl-1,2,5-oxadiazole 2-oxide]		> 227	9.0 ± 0.6 %	6.5 ± 1	2.2 ± 0.3		
NC(=O)c1c(COc2ccc(/C=N/NC(=O)c3ccccc3)cc2)no[n+]1[O-] [Compound 4h, (E)-4-((4-((2-benzoylhydrazono)methyl)phenoxy)methyl)-3-carbamoyl-1,2,5-oxadiazole 2-oxide]		> 161	12.1 ± 1.2 %	8.8 ± 0.2	3.1 ± 0.2		
NC(=O)c1c(COc2ccc(/C=N/NC(=O)c3ccc(O)cc3)cc2)no[n+]1[O-] [Compound 4i, (E)-3-carbamoyl-4-((4-((2-(4-hydroxybenzoyl)hydrazono)methyl)phenoxy)methyl)-1,2,5-oxadiazole 2-oxide]			12.3 ± 0.9 %	5.7 ± 0.4	> 10	201 to 203	
NC(=O)c1c(COc2ccc(/C=N/NC(=O)c3ccc([N+](=O)[O-])cc3)cc2)no[n+]1[O-] [Compound 4l, (E)-3-carbamoyl-4-((4-((2-(4-nitrobenzoyl)hydrazono)methyl)phenoxy)methyl)-1,2,5-oxadiazole 2-oxide]			11.8 ± 1.1 %	10.8 ± 2.3	7.7 ± 2.1		
CC(C)(C)c1ccc(C(=O)N/N=C/c2ccc(OCc3no[n+]([O-])c3C(N)=O)cc2)cc1 [Compound 4m, (E)-4-((4-((2-(4-(tert-butyl)benzoyl)hydrazono)methyl)phenoxy)methyl)-3-carbamoyl-1,2,5-oxadiazole 2-oxide]		> 78	12.5 ± 1.3 %	6 ± 0.7	6.4 ± 1.1		
O=C(N/N=C/c1ccc2no[n+]([O-])c2c1)c1ccccc1 [Compound 4p]				> 20	> 10		
Nc1ccccc1C(=O)N/N=C/c1ccc2no[n+]([O-])c2c1 [Compound 4q]				14 ± 2	> 10		
Nc1cccc(C(=O)N/N=C/c2ccc3no[n+]([O-])c3c2)c1 [Compound 4r]		11		3.4 ± 0.1	9.5 ± 0.6		
Nc1ccc(C(=O)N/N=C/c2ccc3no[n+]([O-])c3c2)cc1 [Compound 4s]				> 20	> 10		
O=C(N/N=C/c1ccc2no[n+]([O-])c2c1)c1ccccc1O [Compound 4t]				4.2 ± 0.2	> 10		
O=C(N/N=C/c1ccc2no[n+]([O-])c2c1)c1cccc(O)c1 [Compound 4u]				11.7 ± 0.5	> 10		
O=C(N/N=C/c1ccc2no[n+]([O-])c2c1)c1ccc(O)cc1 [Compound 4v]				> 20	> 10		
CC(C)(C)c1ccc(C(=O)N/N=C/c2ccc3no[n+]([O-])c3c2)cc1 [Compound 4x]					> 10		> 20
NC(=O)N/N=C/c1ccc(O)cc1 [Compound 14a, (E)-2-(4-hydroxybenzylidene)hydrazine-1-carboxamide]				2 ± 0.1	> 10	224 to 226	
NC(=S)N/N=C/c1ccc(O)cc1 [Compound 14b, (E)-2-(4-hydroxybenzylidene)hydrazine-1-carbothioamide]				11.7 ± 1			
O=C(N/N=C/c1ccc(O)cc1)c1ccccc1 [Compound 14c, (E)-N’-(4-hydroxybenzylidene)benzohydrazide]				2 ± 0.3	> 10	244 to 245	
O=C(N/N=C/c1ccc(O)cc1)c1ccc(O)cc1 [Compound 14d, (E)-4-hydroxy-N’-(4-hydroxybenzylidene)benzohydrazide]				2 ± 0.1	> 10		
Nc1ccc(C(=O)N/N=C/c2ccc(O)cc2)cc1 [Compound 14e, (E)-4-amino-N’-(4-hydroxybenzylidene)benzohydrazide]				1.2 ± 0.1	> 10	275 to 276	
O=C(N/N=C/c1ccc(O)cc1)c1ccc([N+](=O)[O-])cc1 [Compound 14f, (E)-N’-(4-hydroxybenzylidene)-4-nitrobenzohydrazide]				4 ± 0.1	> 10	266 to 268	
CC(C)(C)c1ccc(C(=O)N/N=C/c2ccc(O)cc2)cc1 [Compound 14g, (E)-4-(tert-butyl)-N’-(4-hydroxybenzylidene)benzohydrazide]				7.6 ± 2.1	> 10		
O=[N+]([O-])O[C@H]1CO[C@H]2[C@@H]1OC[C@H]2O[N+](=O)[O-] [DNS, isosorbide dinitrate, reference compound]			10.5% and 10.5 ± 0.9 ^*^a %				
